Results on 2 compounds are retold here after patent US20200384013A1, “COMPOSITION FOR IMPROVEMENT OF SYMPTOMS OF SPINAL CORD INJURY” (MiZ Company Limited, priority 2019, published 2020).

For data set [1] the following is noted: compared with H2; stated as known; cited from earlier work.
Data set [2] has as its system symptoms of cervical spine/cervical cord injury. On the procedure: They restored consciousness about a week after the accident.
Immediately before inhalation of hydrogen gas 6 years after the accident, they went to work in the afternoon 4 or 5 days a week, and stayed at home throughout a day when they felt ill. Further, they occasionally saw a doctor of psychiatry.
About 6 years after the accident, the patient underwent inhalation of hydrogen (hydrogen inhalation equipment: MHG-2000a Type, hydrogen concentration: 6 to 7.5%, hydrogen gas production rate: 140 mL/min, MiZ Company Limited (Kanagawa, Japan) over a period from Oct. 4, 2018 to May 12, 2019. Hydrogen was aspirated twice a day, once in the morning and once in the afternoon, for a total of 2 to 7.5 hours (an average of 3.3 hours a day), and as symptoms, pain, disordered sleep, decreased appetite, physical fatigue, mental fatigue, nervous fatigue, burning sensation on the back and foot spasticity were evaluated on Face Pain Scale (FPS; scale: 0 to 5) for about 7 months.
The FAS scales in FIGS. 1 to 5 indicate how the state changed after inhalation as compared to the state before inhalation. […] In FIGS. 1 to 5, the number of scores (e.g. 0 to 3) was counted for each of the periods, and the ratio (%) of the scores in each item was calculated. In the diagrams, the numbers shown outside the table represent the total numbers of respective scores.
Further, on May 13, 2019, the patient started inhalation of hydrogen using hydrogen gas inhalation equipment for professional use (hydrogen concentration: 6 to 7.5%, hydrogen gas production rate: 1,120 mL/min, MiZ Company Limited) instead of the hydrogen inhalation equipment MHG-2000a Type.
FIGS. 1 to 5 show the results of counting over a period from Oct. 4, 2018 to Feb. 14, 2019.
The patient recorded the FAS scores as well as their feeling before and after inhalation on paper record forms as will be described below.

The conditions of data set [3]: normal temperature and normal pressure; also printed as 1.6 mg/L; cited from earlier work.
Data set [4] relates to injured nerve cells of the spinal cord / spinal cord-injured animal model. To be noted: high-concentration hydrogen of, for example, 50% or more; X. Chen 2018, C. Chen 2010; cited from earlier work.

Turning to `[2H][2H]` [D2, deuterium], the superoxide eliminating action result in data set [1] is recorded as “higher than that of H2”.
Consider `[HH]` [hydrogen gas, molecular hydrogen], for which the “FAS “4” and FAS “5” scores” value in data set [2] (Oct. 4, 2018 to Feb. 14, 2019, all items, hydrogen 6 to 7.5%, 140 mL/min) is on record as “not recorded at all”. The “improvement in pain, sleep, appetite, physical fatigue, mental fatigue and nervous fatigue (Face Pain Scale scores)” value in data set [2] (Oct. 4 to Oct. 31, 2018, inhalation, hydrogen 6 to 7.5%, 140 mL/min, average 3.3 hours a day, FAS 0 and 1 scores recorded) is “good improvement tendency”. The “improvement in sensation on the back and improvement in foot spasticity (Face Pain Scale scores)” value in data set [2] (Oct. 4 to Oct. 31, 2018, inhalation, hydrogen 6 to 7.5%, 140 mL/min, FAS 2 and 3 scores, occasionally 1) is on record as “the improvement tendency was unknown or became worse”. The “Face Pain Scale scores, all items, before against after inhalation” value in data set [2] (from May 13, 2019, equipment for professional use, hydrogen 6 to 7.5%, 1,120 mL/min) was “improvement occurred in all the items”. Also, the “ratio of FAS “1” scores” value in data set [2] (in and after November 2018, against inhalation time, hydrogen 6 to 7.5%, 140 mL/min) was “tended to increase as the inhalation time increased”. Besides, in data set [2] (on and after Dec. 1, 2018, continuous inhalation, hydrogen 6 to 7.5%, 140 mL/min, scale 0 to 5), the “FAS score recorded in any of the items” value came out at 3. Further, the “body temperature and sweating reported by the patient” value in data set [2] (record May 13, 2019, equipment 1,120 mL/min, hydrogen 6 to 7.5%) was “the body temperature rises, and thus sweating cannot be stopped”. Besides, the “patient's recorded feeling (spasticity, peripheral nerve, metabolism, flow of blood, induction of sleep)” value in data set [2] (record May 13, 2019, equipment 1,120 mL/min, hydrogen 6 to 7.5%, compared with before) is on record as “a more potent effect is exhibited”. For the same compound, the “concentration of hydrogen dissolved in water” value in data set [3] was “about 1.6 ppm”. In addition, in data set [4], the “nerve cells of the spinal cord” value is recorded as “the nerve cells of the spinal cord were protected” and the oxidative stress result is on record as “oxidative stress was suppressed”.
